Experimental data as given in PubChem BioAssay (NCI).
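Each compound was tested at five concentrations against cells in 96-well plates for 48 hours. GI50 = concentration required for 50% inhibition of growth. TGI denotes the concentration required for complete inhibition of growth.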

Columns and labels:
Assay in all cases: DTP human tumour cell line panel, 48 h
[1] = tested on: IGROV1 ovarian
[2] = tested on: LOX IMVI melanoma
[3] = tested on: MCF7 breast
[4] = tested on: MDA-MB-231 breast
[5] = tested on: MDA-MB-435
[6] = tested on: MOLT-4 leukemia
[7] = tested on: NCI/ADR-RES ovarian
[8] = tested on: SF-539 CNS
[9] = tested on: SN12C renal
[10] = tested on: RXF 393 renal

Row | Structure (SMILES) | GI50 [1] | TGI [1] | GI50 [2] | TGI [2] | GI50 [3] | TGI [3] | GI50 [4] | TGI [4] | GI50 [5] | TGI [5] | GI50 [6] | TGI [6] | GI50 [7] | TGI [7] | GI50 [8] | TGI [8] | GI50 [9] | TGI [9] | GI50 [10] | TGI [10]
1 | COc1ccc(C2=C(c3cc(OC)c(OC)c(OC)c3)C(=O)CC2)cc1 | 0.58 µM | > 100 µM | 0.441 µM | > 100 µM | 0.0585 µM | > 100 µM | 0.62 µM | > 100 µM | 0.0291 µM | 0.12 µM | 0.405 µM | > 100 µM | 0.0704 µM | > 100 µM | 0.189 µM | > 48.3 µM | 0.676 µM | > 100 µM |  | 
2 | CC1=C([Se]CC(OC(=O)[C@@H](CO)NC(=O)OC(C)(C)C)C(=O)NC(C)(C)C)C(=O)c2ccccc2C1=O (stereo partly drawn) | 1.66 µM | 3.27 µM | 1.6 µM | 3.02 µM | 1.75 µM | 3.97 µM | 1.62 µM | 3.14 µM | 2.01 µM | 4.1 µM |  |  |  |  | 1.57 µM | 3.05 µM | 1.85 µM | 3.41 µM | 1.86 µM | 3.28 µM
3 | COc1cccc(C2NC(=S)NC(C)=C2C(=O)Nc2ccc(F)c(Cl)c2)c1 (stereo not drawn) | 27.6 µM | > 50 µM | 17.6 µM | > 50 µM | 20.2 µM | > 50 µM | 29 µM | > 50 µM | 27.3 µM | > 50 µM |  |  | 18.2 µM | > 50 µM | > 50 µM | > 50 µM | 26.1 µM | > 50 µM |  | 
4 | Cc1cc(C(=O)N2CCN(Cc3ccccc3)CC2)c(C)o1 |  | > 100 µM |  | > 100 µM |  |  |  |  |  |  |  | > 100 µM |  |  |  | > 100 µM |  | > 100 µM |  | 
5 | Cc1cc(C)cc(Sc2c([N+](=O)[O-])ncn2C)c1 |  | 55.1 µM |  | 25.6 µM |  |  |  |  |  |  |  | 38.2 µM |  |  |  | 20.9 µM |  | 31.8 µM |  | 
6 | Cc1cc(NS(=O)(=O)c2ccc(NC(=O)c3cccc4c(Nc5ccc(S(=O)(=O)Nc6cc(C)on6)cc5)c5ccccc5nc34)cc2)no1 |  | 76.5 µM |  | 87.5 µM |  |  |  |  |  |  |  | 95.4 µM |  |  |  | 62 µM |  | > 100 µM |  | 61.5 µM
7 | CC1(C)C(=S)C(C)(C)C1=S |  | > 100 µM |  | > 100 µM |  | > 100 µM |  | > 100 µM |  | > 100 µM |  | > 100 µM |  | > 100 µM |  | > 100 µM |  | > 100 µM |  | 
8 | CN(C)CCN=Cc1c2ccccc2c(=O)n2c1oc1ccccc12 | 10.6 µM | 27.6 µM | 4.18 µM | 16.1 µM |  |  | 12.5 µM | 29 µM | 10.1 µM | 21.7 µM | 4.2 µM | > 100 µM | 13.7 µM | 32.6 µM | 2.96 µM | 8.81 µM | 3.81 µM | 17.1 µM | 12.7 µM | 28.6 µM
9 | O=c1c2ccccc2c(=O)c2c1cc(Cl)c1[nH]c3c([nH]c12)c(Cl)cc1c(=O)c2ccccc2c(=O)c13 |  | > 100 µM |  |  |  |  |  |  |  |  |  | > 100 µM |  |  |  | > 100 µM |  | > 100 µM |  | > 100 µM
10 | N#Cc1cccc(NC(=O)c2oc3ccccc3c2-c2cnn(-c3ccccc3)c2)c1 | 120 µM | > 500 µM | 308 µM | > 500 µM | 209 µM | > 500 µM | 90 µM | > 500 µM | > 500 µM | > 500 µM |  |  | > 500 µM | > 500 µM | 137 µM | > 500 µM | > 500 µM | > 500 µM | 185 µM | > 500 µM
11 | N#CCC(=O)N/N=C1\C(=O)N(c2ccc(Cl)cc2)C(=O)C(=O)C1c1nc2ccccc2o1 (stereo not drawn) |  | > 100 µM |  |  |  |  |  |  |  |  |  | > 100 µM |  |  |  | > 100 µM |  | > 100 µM |  | > 100 µM
12 | O=C(Nc1ccccc1Br)c1cccc([N+](=O)[O-])c1O |  | > 59.7 µM |  | 10.7 µM |  |  |  |  |  |  |  | 10.4 µM |  |  |  | 35 µM |  | > 81.8 µM |  | 6.71 µM
13 | CC(=O)OC1C(CCl)OC(N=[N+]=[N-])C(OC(C)=O)C1OC(C)=O (stereo not drawn) |  | > 100 µM |  |  |  |  |  |  |  |  |  | > 100 µM |  |  |  | > 100 µM |  | > 100 µM |  | > 100 µM
14 | O=C(O)C1c2ccccc2C(C(=O)O)c2ccccc21 (stereo not drawn) |  | > 100 µM |  | > 100 µM |  |  |  |  |  |  |  | > 100 µM |  |  |  | > 100 µM |  | > 100 µM |  | > 100 µM
15 | CC(C)(C)[Si](C)(C)O/N=C\c1ccc(O[Si](C)(C)C(C)(C)C)cc1 |  | > 100 µM |  | 40.1 µM |  |  |  |  |  |  |  | > 100 µM |  |  |  | > 100 µM |  | > 100 µM |  | 63.7 µM
16 | C=C1Oc2nc3ccccc3c(=O)n2C1(C)C |  | > 100 µM |  | > 100 µM |  |  |  |  |  |  |  | > 100 µM |  |  |  | > 100 µM |  | > 100 µM |  | 

Row | Structure (SMILES) | GI50 [1] | TGI [1] | GI50 [2] | TGI [2] | GI50 [3] | TGI [3] | GI50 [4] | TGI [4] | GI50 [5] | TGI [5] | GI50 [6] | TGI [6] | GI50 [7] | TGI [7] | GI50 [8] | TGI [8] | GI50 [9] | TGI [9] | GI50 [10] | TGI [10]
17 | Nc1ccccc1NC(=O)c1ccc(CN2CCC/C(=C\c3cccc(Cl)c3)C2=O)cc1 | 0.337 µM | 13.6 µM | 0.0664 µM | 2.06 µM | 0.0332 µM | 26.6 µM | 0.584 µM | 7.93 µM |  |  | 0.474 µM | > 100 µM | 0.198 µM | 6.09 µM | 0.695 µM | 5.33 µM | 0.708 µM | 85.3 µM | 0.277 µM | 5.23 µM
18 | CC[O-].Cc1ccc2cccc([O-])c2n1.Cc1ccc2cccc([O-])c2n1.Cc1ccc2cccc([O-])c2n1.[Ti+4] | 43.2 µM | > 100 µM | 18.2 µM | 47.9 µM |  |  |  |  |  |  | 6.07 µM | 35.8 µM |  |  | 40.4 µM | > 100 µM | 65.3 µM | > 100 µM | 30.9 µM | 70.9 µM
19 | COc1ccc(Cc2cnc(NC(=O)c3sc4ccccc4c3Cl)s2)cc1 | 0.608 µM | > 100 µM | 1.52 µM | > 100 µM | 0.355 µM | > 100 µM | 0.585 µM | > 100 µM |  |  | 0.484 µM | > 100 µM | 0.342 µM | > 100 µM | 0.236 µM | 0.674 µM | 0.687 µM | > 100 µM | 0.179 µM | 0.579 µM
20 | COc1cc2cc[n+]3c4cc(OC)c(OC)cc4c(C)cc3c2cc1OC |  | > 100 µM |  | > 100 µM |  |  |  |  |  |  |  | > 100 µM |  |  |  | > 100 µM |  | > 100 µM |  | 
21 | O=C(O)C#CCO |  | > 100 µM |  | > 100 µM |  |  |  |  |  |  |  | > 100 µM |  |  |  | > 100 µM |  | > 100 µM |  | > 100 µM
22 | C/C(=N/NC(=O)C(N)=O)C(CC(C(=O)Nc1ccccc1C)/C(C)=N\NC(=O)C(N)=O)C(=O)Nc1ccccc1C (stereo not drawn) |  | > 100 µM |  | > 100 µM |  |  |  |  |  |  |  | > 100 µM |  |  |  | > 100 µM |  | > 100 µM |  | > 100 µM
23 | COC(=O)C1CCC(Nc2cccc(C(F)(F)F)c2)=N1 (stereo not drawn) |  | > 100 µM |  | > 100 µM |  |  |  |  |  |  |  | > 100 µM |  |  |  |  |  | > 100 µM |  | 
24 | NCC1OC(OC2C(CO)OC(OC3C(O)C(N)CC(N)C3OC3OC(CO)C(O)C(O)C3N)C2O)C(N)C(O)C1O (stereo not drawn) | > 50 µg/mL | > 50 µg/mL | > 50 µg/mL | > 50 µg/mL | > 50 µg/mL | > 50 µg/mL | > 50 µg/mL | > 50 µg/mL | > 50 µg/mL | > 50 µg/mL |  |  | > 50 µg/mL | > 50 µg/mL | > 50 µg/mL | > 50 µg/mL |  |  | > 50 µg/mL | > 50 µg/mL
25 | CC1=C(c2cc(C(=O)Nc3ccc(Cl)c(Cl)c3)nc(N)n2)Sc2ccccc2N1 |  | > 100 µM |  | > 100 µM |  |  |  |  |  |  |  | > 100 µM |  |  |  | > 100 µM |  | > 100 µM |  | > 100 µM
26 | CCC[CH2][Sn]([CH2]CCC)([O]C(=O)c1nccnc1N)[O]C(=O)c1nccnc1N | 1.33 µM | 2.68 µM | 0.365 µM | 1.48 µM |  |  |  |  |  |  | 0.257 µM | 1.1 µM |  |  | 1.09 µM | 2.3 µM | 0.791 µM | 2.04 µM | 0.187 µM | 1.31 µM
27 | CCN(CC)CCNC(=O)c1cccc2cc3ccccc3nc12 |  | 60.7 µM |  | 19.2 µM |  |  |  |  |  |  |  | 7.95 µM |  |  |  | 16.9 µM |  | 51.4 µM |  | 10.7 µM
28 | COC(=O)[C@@]1(C)CC[C@]2(C)CC[C@]3(C)C4=CC=C5C(=CC(=O)C(O)=C5C)[C@]4(C)CC[C@@]3(C)[C@@H]2C1 | 0.198 µM | 0.46 µM | 0.174 µM | 0.325 µM |  |  | 0.171 µM | 0.395 µM | 0.195 µM | 0.503 µM | 0.164 µM | 0.525 µM |  |  | 0.26 µM | 0.554 µM | 0.201 µM | 0.507 µM | 0.176 µM | 0.33 µM
29 | O=C(O)CCC1(Br)CCCCC(Br)C1=O (stereo not drawn) |  | > 100 µM |  |  |  |  |  |  |  |  |  | > 100 µM |  |  |  | > 100 µM |  | > 100 µM |  | > 100 µM
30 | N#CC(C#N)=CSc1ccccc1 |  | 35.7 µM |  | 26 µM |  |  |  |  |  |  |  | > 100 µM |  |  |  | 42.3 µM |  | 59.8 µM |  | 45.2 µM
31 | CC(=O)OCC1OC(OC2=C(CC=C(Cl)Cl)C(=O)c3ccccc3C2=O)C(OC(C)=O)C(OC(C)=O)C1OC(C)=O (stereo not drawn) | 0.869 µM | 3.11 µM | 1.71 µM | 3.56 µM |  |  | 2.05 µM | 5.62 µM | 4.38 µM | 16 µM | 1.43 µM | 9.89 µM | 4.23 µM | 51.9 µM | 4.09 µM | 14.6 µM | 5.62 µM | 18.7 µM | 2.53 µM | 8.01 µM
